System: patients after acute myocardial infarction
Assay: TCM symptom score, total and single (chest pain, chest tightness, short breath, fatigue, palpitation, spontaneous perspiration, pale complexion), same clinical trial
Format: in vivo, human
Conditions: for chest pain score 0, number of patients / chest pain score 0, percent of patients / chest pain score 3, number of patients / chest pain score 3, percent of patients / chest pain score 6, number of patients / chest pain score 6, percent of patients / chest pain score 9, number of patients / chest pain score 9, percent of patients / chest tightness score 0, number of patients / chest tightness score 0, percent of patients / chest tightness score 3, number of patients / chest tightness score 3, percent of patients / chest tightness score 6, number of patients / chest tightness score 6, percent of patients / chest tightness score 9, number of patients / chest tightness score 9, percent of patients: 12 months after treatment
From the text: 3508 patients who were in accordance with the diagnostic standards of AMI for 28 days to 2 years and differentiated as Qi deficiency and blood stagnation syndrome by TCM were studied. 0.5 g Chinese medicine composition prepared by the method of EXAMPLE 1 (Coded as QSYQ) was administrated half an hour after meal, 3 times per day.
They included the overall survival time, angina pectoris score, TCM symptom score and life quality score, where angina pectoris score, TCM symptom score and life quality score were evaluated at randomization, in 1st, 3rd, 6th, 9th, 12th month after treatment and 18th month after follow-up.
The analysis method referred to the angina pectoris score.

[1] = 12 months after treatment-baseline, FAS
[2] = 12 months after treatment-baseline, PP
[3] = FAS, 12 months after treatment-treatment

## CC(=O)Oc1ccccc1C(=O)O [Control group, aspirine]
[1]
  change of chest tightness score 9, number of patients: 5
  change of chest tightness score 9, percent of patients: (0.29%)
  change of chest tightness score −3, number of patients: 83
  change of chest tightness score −3, percent of patients: (4.86%)
  change of chest tightness score −6, number of patients: 3
  change of chest tightness score −6, percent of patients: (0.18%)
  change of chest tightness score −9, number of patients: 0
  change of chest tightness score −9, percent of patients: (0.00%)
[2]
  change of chest pain score 0, number of patients: 760
  change of chest pain score 0, percent of patients: (54.36%)
  change of chest pain score 3, number of patients: 455
  change of chest pain score 3, percent of patients: (32.55%)
  change of chest pain score 6, number of patients: 131
  change of chest pain score 6, percent of patients: (9.37%)
  change of chest pain score 9, number of patients: 5
  change of chest pain score 9, percent of patients: (0.36%)
  change of chest pain score −3, number of patients: 45
  change of chest pain score −3, percent of patients: (3.22%)
  change of chest pain score −6, number of patients: 2
  change of chest pain score −6, percent of patients: (0.14%)
  change of chest tightness score 0, number of patients: 721
  change of chest tightness score 0, percent of patients: (51.54%)
  change of chest tightness score 3, number of patients: 539
  change of chest tightness score 3, percent of patients: (38.53%)
  change of chest tightness score 6, number of patients: 79
  change of chest tightness score 6, percent of patients: (5.65%)
  change of chest tightness score 9, number of patients: 4
  change of chest tightness score 9, percent of patients: (0.29%)
  change of chest tightness score −3, number of patients: 54
  change of chest tightness score −3, percent of patients: (3.86%)
  change of chest tightness score −6, number of patients: 2
  change of chest tightness score −6, percent of patients: (0.14%)
  change of chest tightness score −9, number of patients: 0
  change of chest tightness score −9, percent of patients: (0.00%)
FAS
  chest pain score 0, number of patients: 858
  chest pain score 0, percent of patients: (49.94%)
  chest pain score 3, number of patients: 607
  chest pain score 3, percent of patients: (35.33%)
  chest pain score 6, number of patients: 248
  chest pain score 6, percent of patients: (14.44%)
  chest pain score 9, number of patients: 5
  chest pain score 9, percent of patients: (0.29%)
  chest tightness score 0, number of patients: 858
  chest tightness score 0, percent of patients: (49.94%)
  chest tightness score 3, number of patients: 607
  chest tightness score 3, percent of patients: (35.33%)
  chest tightness score 6, number of patients: 248
  chest tightness score 6, percent of patients: (14.44%)
  chest tightness score 9, number of patients: 5
  chest tightness score 9, percent of patients: (0.29%)
PP
  chest pain score 0, number of patients: 725
  chest pain score 0, percent of patients: (51.67%)
  chest pain score 3, number of patients: 501
  chest pain score 3, percent of patients: (35.71%)
  chest pain score 6, number of patients: 176
  chest pain score 6, percent of patients: (12.54%)
  chest pain score 9, number of patients: 1
  chest pain score 9, percent of patients: (0.07%)
  chest tightness score 0, number of patients: 725
  chest tightness score 0, percent of patients: (51.67%)
  chest tightness score 3, number of patients: 501
  chest tightness score 3, percent of patients: (35.71%)
  chest tightness score 6, number of patients: 176
  chest tightness score 6, percent of patients: (12.54%)
  chest tightness score 9, number of patients: 1
  chest tightness score 9, percent of patients: (0.07%)
[3]
  change of short breath 0, % of patients: (55.85%)
  change of short breath 2, % of patients: (32.92%)
  change of short breath 2, number of patients: 563
  change of short breath 4, % of patients: (4.09%)
  change of short breath 4, number of patients: 70
  change of short breath 6, % of patients: (0.70%)
  change of short breath 6, number of patients: 12
  change of short breath −2, % of patients: (6.32%)
  change of short breath −2, number of patients: 108
  change of short breath −4, % of patients: (0.12%)
  change of short breath −4, number of patients: 2
FAS, 1 month after treatment
  distribution of total score of TCM symptom: Medium, number of patients: 675
  distribution of total score of TCM symptom: Medium, percentage of patients: (40.11%)
  distribution of total score of TCM symptom: Mild, number of patients: 989
  distribution of total score of TCM symptom: Mild, percentage of patients: (58.76%)
  distribution of total score of TCM symptom: Severe, number of patients: 19
  distribution of total score of TCM symptom: Severe, percentage of patients: (1.13%)
  fatigue score 0, % of patients: (24.05%)
  fatigue score 0, number of patients: 413
  fatigue score 2, % of patients: (60.75%)
  fatigue score 2, number of patients: 1043
  fatigue score 4, % of patients: (13.86%)
  fatigue score 4, number of patients: 238
  fatigue score 6, % of patients: (1.34%)
  fatigue score 6, number of patients: 23
  pale complexion score 0, number of patients: 713
  pale complexion score 0, percent of patients: (41.53%)
  pale complexion score 1, number of patients: 726
  pale complexion score 1, percent of patients: (42.28%)
  pale complexion score 2, number of patients: 245
  pale complexion score 2, percent of patients: (14.27%)
  pale complexion score 3, number of patients: 33
  pale complexion score 3, percent of patients: (1.92%)
  palpitation score 0, number of patients: 427
  palpitation score 0, percent of patients: (24.87%)
  palpitation score 1, number of patients: 1
  palpitation score 1, percent of patients: (0.06%)
  palpitation score 2, number of patients: 834
  palpitation score 2, percent of patients: (48.57%)
  palpitation score 4, number of patients: 398
  palpitation score 4, percent of patients: (23.18%)
  palpitation score 6, number of patients: 57
  palpitation score 6, percent of patients: (3.32%)
  short breath score 0, % of patients: (21.14%)
  short breath score 0, number of patients: 363
  short breath score 3, % of patients: (54.22%)
  short breath score 3, number of patients: 931
  short breath score 6, % of patients: (23.88%)
  short breath score 6, number of patients: 410
  short breath score 9, % of patients: (0.76%)
  short breath score 9, number of patients: 13
  spontaneous perspiration score 0, number of patients: 603
  spontaneous perspiration score 0, percent of patients: (35.12%)
  spontaneous perspiration score 1, number of patients: 879
  spontaneous perspiration score 1, percent of patients: (51.19%)
  spontaneous perspiration score 2, number of patients: 215
  spontaneous perspiration score 2, percent of patients: (12.52%)
  spontaneous perspiration score 3, number of patients: 20
